Data taken from patent EP2955179A1, “CONDENSED HETEROCYCLIC COMPOUND” (Sumitomo Chemical Company Limited, priority 2013, dated 2014).
Like-named read-outs stand apart in the source and are kept apart here.

How the values were obtained:
Format in all cases: in vivo
Nilaparvata lugens [1] = assay: Test Example 4: drench at foot of rice seedling, Nilaparvata lugens larvae released; settings: active ingredient 500 ppm, 5 ml drench at foot of rice seedling, 7 days at 25°C, then third-fourth instar larvae kept 6 days; for mortality at 500 ppm: Nilaparvata lugens, soil, 144 h, read-out: control value
Culex pipiens pallens = assay: Test Example 10: Culex pipiens pallens larvae in treated water; settings: 24 h, read-out: death rate
Description: 20 last-instar larvae of Culex pipiens pallens were released into the solution. One day later, the life and death of the Culex pipiens pallens was examined, and the number of dead insects was counted to calculate the death rate. Death rate (%) = (Number of dead insects/Number of tested insects) × 100 [formula]

Aphis gossypii [2] = assay: Test Example 2: drench at foot of cucumber seedling, later inoculated with Aphis gossypii; settings: soil, 144 h, active ingredient 500 ppm, 5 ml drench at foot of cucumber seedling, 7 days at 25°C, then inoculated and kept 6 days, read-out: control value
Description: (§1) On the other hand, a cucumber seedling (the second true leaf stage) planted in a plastic cup was drenched at its foot with 5 ml of the test drug solution, and kept in a greenhouse at 25°C for 7 days. On the cucumber leaf surface was inoculated about 30 Aphis gossypii (whole stage), and further kept in the greenhouse for 6 days, then the number of surviving Aphis gossypii parasitic on the leaves of the cucumber was examined, and the control value was calculated according to the following equation: Control value (%) = {1-(Cb×Tai)/(Cai×Tb)} × 100 [formula] wherein the symbols represent as follows: • Cb: the number of insects in a non-treated section before treatment • Cai: the number of surviving parasitic insects in a non-treated section on observation • Tb: the number of insects in a treated section before treatment • Tai: the number of surviving parasitic insects in a treated section on observation • wherein the non-treated section refers to a section where the test drug solution prepared by diluting the formulation obtained as in Formulation Example 5 but not containing the compound of the present invention with the same amount of water as in the treated section was sprayed.

[3] = test system: Haemaphysalis longicornis; assay: Test Example 11: coated screw tube contact test, Haemaphysalis longicornis ticks; settings: 48 h, 2 mg compound in 0.2 mL acetone coated on inner wall of screw tube, unfed nymphal ticks, after 2 days, read-out: death rate
Description: 2 mg of each of Compounds of Present Invention 1-5, 1-24, 1-32 to 1-33, and 1-36 was weighed in a screw tube (Maruemu No. 5; 27 × 55 mm), 0.2 mL of acetone was added thereto, and the screw tube was sealed with a cap to dissolve the compound. The screw tube was rotated and inverted to uniformly coat the drug solution onto the whole inner wall of the tube. After removing the cap, the solution was air-dried for about 2 hours, then unfed nymphal ticks, Haemaphysalis longicornis (5 ticks/group) were released, and the tube was sealed with the cap. After 2 days, the number of dead insects was counted, and the death rate was calculated according to the following equation. Death rate (%) = (Number of dead insects/Number of tested insects) × 100 [formula]

Plutella xylostella = assay: Test Example 6: spray on cabbage, Plutella xylostella larvae released; settings: 120 h, read-out: death rate
Description: On the other hand, on cabbage at the third leaf stage planted in a polyethylene cup was sprayed, at a rate 20 mL/cup, the test drug solution. After the drug solution was dried, the foliage part was cut off, and then placed in a 50 mL volume cup. Five second instar larvae of Plutella xylostella were released into the cup, and the cup was sealed with a lid. After the cup was kept at 25°C for 5 days, the number of dead insects was counted. The death rate was calculated according to the following equation. Death rate (%) = (Number of dead insects/Number of tested insects) × 100 [formula]

[4] = test system: Adoxophyes orana fasciata; assay: Test Example 7: spray on apple tree, Adoxophyes orana fasciata larvae released; settings: in Malus domestica, 168 h, active ingredient 500 ppm, 20 mL/cup sprayed on apple tree, first-instar larvae, after 7 days, read-out: death rate
Description: The formulations of Compounds of Present Invention 1-1 to 1-6, 1-10, 1-21, 1-28, 1-31 to 1-34, 1-39 and 1-42 as obtained in Formulation Example 5 were diluted with water, so as to have a concentration of the active ingredient of 500 ppm, to prepare a test spray solution.
On the other hand, an apple tree was planted in a plastic cup, and grown until the seventh-eighth true leaf was spread. To the apple tree was sprayed, at a rate of 20 mL/cup, the test drug solution. After the drug solution was dried, 60 first-instar larvae of Adoxophyes orana fasciata were released, and covered with a plastic cup the bottom of which was cut off and on which a filter paper was put, with the plastic cup cover placed upside-down. After 7 days, the number of dead insects was counted, and the death rate was calculated according to the following equation. Death rate (%) = (Number of dead insects/Number of tested insects) × 100 [formula]

Musca domestica = assay: whole plant or invertebrate; settings: 24 h, read-out: death rate
Description: The formulations of Compounds of Present Invention 1-1, 1-40 and 1-42 as obtained in Formulation Example 5 were diluted with water, so as to have a concentration of the active ingredient of 500 ppm, to prepare a test drug solution.
A filter paper having a diameter of 5.5 cm was spread on the bottom of a polyethylene cup having the same diameter and 0.7 ml of the test drug solution was added dropwise onto the filter paper, and 30 mg of sucrose was uniformly placed as bait. Into the polyethylene cup, 10 female imagoes of Musca domestica were released, and the cup was sealed with a lid. After 24 hours, the life and death of Musca domestica was examined, the number of dead insects was counted, and the death rate was calculated according to the following equation. Death rate (%) = (Number of dead insects/Number of tested insects) × 100 [formula]

Aphis gossypii [5] = assay: Test Example 1: foliar spray on cucumber seedling inoculated with Aphis gossypii; settings: 144 h, active ingredient 500 ppm, 20 ml sprayed on cucumber seedling, six days after spraying, read-out: control value
Description: as §1, with “hand, on” for “hand,”, “first” for “second”, “inoculated” for “drenched at its foot”, “with” for “with 5 ml of the test drug solution, and kept in a greenhouse at 25°C for 7 days. On the cucumber leaf surface was inoculated”, “left for a day. 20 ml of” for “further kept in”, “test drug solution was sprayed on the seedling. Six days after spraying,” for “greenhouse for 6 days, then”

Nilaparvata lugens [6] = assay: Test Example 3: spray on rice seedling, Nilaparvata lugens larvae released; settings: 144 h, active ingredient 500 ppm, 10 ml sprayed on rice seedling, third-fourth instar larvae, after 6 days, read-out: control value
[7] = active ingredient concentration 3.5 ppm in ion-exchanged water, last-instar larvae, one day later
[8] = active ingredient 500 ppm, 20 mL/cup sprayed on cabbage, second instar larvae, 25°C for 5 days

For `CCS(=O)(=O)c1cc(C(=O)N2CCCC2)cnc1-c1nc2cc(C(F)(F)F)cnc2n1C` [Compound of Present Invention 1-8, 5-ethylsulfonyl-6-(3-methyl-6-trifluoromethyl-3H-imidazo[4,5-b]pyridin-2-yl)nicotinoylpyrrolidine], the control value (Nilaparvata lugens [1]) was no less than 90%.
With `CCS(=O)(=O)c1cc(C(=O)N2CCOCC2)cnc1-c1nc2cc(C(F)(F)F)cnc2n1C` [Compound of Present Invention 1-13] the mortality at 3.5 ppm (Culex pipiens pallens; [7]) was no less than 95% and the mortality at 500 ppm (Aphis gossypii [2]) was no less than 90%.
`CCS(=O)(=O)c1cc(C(=O)NC2CSC2)cnc1-c1nc2cc(C(F)(F)F)cnc2n1C` [Compound of Present Invention 1-36] gave a mortality at 2 mg/tube, 2 mg/tube [3] of 100%.
Work on `CCS(=O)(=O)c1cc(C(=O)OCCOC)cnc1-c1nc2cc(C(F)(F)F)cnc2n1C` [Compound of Present Invention 1-33] yielded a mortality at 2 mg/tube, 2 mg/tube [3] of 100%.
With `CCOC(=O)c1cnc(-c2nc3cc([S+]([O-])C(F)(F)F)ccc3o2)c(S(=O)(=O)CC)c1` (centres unmarked) [Compound of Present Invention 1-39] the mortality at 3.5 ppm (Culex pipiens pallens; [7]) was no less than 95%, the mortality at 500 ppm (Plutella xylostella; [8]) was no less than 80% and the mortality at 500 ppm [4] was no less than 90%.
Compound `CCS(=O)(=O)c1cc(C(=O)OC)cnc1-c1nc2cc(C(F)(F)F)cnc2n1C` [Compound of Present Invention 1-1, methyl 5-ethylsulfonyl-6-(3-methyl-6-trifluoromethyl-3H-imidazo[4,5-b]pyridin-2-yl)nicotinate] has a mortality at 3.5 ppm (Culex pipiens pallens; [7]) of no less than 95%, a mortality at 500 ppm (Plutella xylostella; [8]) of no less than 80% and a mortality at 500 ppm (Musca domestica) of 100%.
In the case of `CCS(=O)(=O)c1cc(C(=O)NC2CC2)cnc1-c1nc2cc(C(F)(F)F)cnc2n1C` [Compound of Present Invention 1-24], the mortality at 2 mg/tube, 2 mg/tube [3] is reported as 100%.
Compound `CCS(=O)(=O)c1cc(C(=O)OCc2ccccc2)cnc1-c1nc2cc(C(F)(F)F)cnc2n1C` [Compound of Present Invention 1-32] has a mortality at 3.5 ppm (Culex pipiens pallens; [7]) of no less than 95% and a mortality at 2 mg/tube, 2 mg/tube [3] of 100%.
Work on `CCS(=O)(=O)c1cc(C(N)=O)cnc1-c1nc2cc([S+]([O-])C(F)(F)F)ccc2o1` (centres unmarked) [Compound of Present Invention 1-41] yielded a mortality at 3.5 ppm (Culex pipiens pallens; [7]) of no less than 95% and a mortality at 500 ppm (Plutella xylostella; [8]) of no less than 80%.
In the case of `CCS(=O)(=O)c1cc(C(=O)OC(C)(C)C)cnc1-c1nc2cc(C(F)(F)F)cnc2n1C` [Compound of Present Invention 1-5, tert-butyl 5-ethylsulfonyl-6-(3-methyl-6-trifluoromethyl-3H-imidazo[4,5-b]pyridin-2-yl)nicotinate], the mortality at 2 mg/tube, 2 mg/tube [3] is reported as 100%.
`CCS(=O)(=O)c1cc(C(=O)NC(C)(C)C)cnc1-c1nc2cc(C(F)(F)F)cnc2n1C` [Compound of Present Invention 1-10, N-tert-butyl-5-ethylsulfonyl-6-(3-methyl-6-trifluoromethyl-3H-imidazo[4,5-b]pyridin-2-yl)nicotinamide] showed a mortality at 500 ppm (Plutella xylostella; [8]) of no less than 80%, a mortality at 500 ppm [4] of no less than 90% and a mortality at 500 ppm (Nilaparvata lugens [1]) of no less than 90%.
Compound `CCS(=O)(=O)c1cc(C(=O)Nc2ccc(Cl)cc2)cnc1-c1nc2cc(C(F)(F)F)cnc2n1C` [Compound of Present Invention 1-20] has a mortality at 3.5 ppm (Culex pipiens pallens; [7]) of no less than 95%.
`CCS(=O)(=O)c1cc(C(C)=O)cnc1-c1nc2cc(C(F)(F)F)cnc2n1C` [Compound of Present Invention 1-21, 2-(5-acetyl-3-ethylsulfonylpyridin-2-yl)-3-methyl-6-trifluo romethyl-3H-imidazo[4,5-b] pyridine] showed a mortality at 500 ppm [4] of no less than 90%, a mortality at 500 ppm (Aphis gossypii [5]) of no less than 90% and a mortality at 500 ppm (Aphis gossypii [2]) of no less than 90%.
With `CCS(=O)(=O)c1cc(C(=O)OCC(F)(F)F)cnc1-c1nc2cc(C(F)(F)F)cnc2n1C` [Compound of Present Invention 1-28] the mortality at 3.5 ppm (Culex pipiens pallens; [7]) was no less than 95% and the mortality at 500 ppm [4] was no less than 90%.
For `CCS(=O)(=O)c1cc(C(=O)N(C)C)cnc1-c1nc2cc([S+]([O-])C(F)(F)F)ccc2o1` (centres unmarked) [Compound of Present Invention 1-42], the mortality at 500 ppm (Plutella xylostella; [8]) was no less than 80%, the mortality at 500 ppm [4] was no less than 90% and the mortality at 500 ppm (Aphis gossypii [2]) was no less than 90%. The mortality at 500 ppm (Nilaparvata lugens [1]) was no less than 90%, the mortality at 500 ppm (Musca domestica) was 100% and the mortality at 500 ppm (Nilaparvata lugens [6]) was no less than 90%.
For `CCS(=O)(=O)c1cc(C(=O)NN(C)C)cnc1-c1nc2cc(C(F)(F)F)cnc2n1C` [Compound of Present Invention 1-7, 5-ethylsulfonyl-N',N'-dimethyl-6-(3-methyl-6-trifluoromethy 1-3H-imidazo[4,5-b]pyridin-2-yl)nicotinic acid hydrazide], the mortality at 3.5 ppm (Culex pipiens pallens) was no less than 95% and the mortality at 500 ppm (Plutella xylostella) was no less than 80%.
In the case of `CCS(=O)(=O)c1cc(C(=O)N(C)C)cnc1-c1nc2cc(C(F)(F)F)cnc2n1C` [Compound of Present Invention 1-6, 5-ethylsulfonyl-N,N-dimethyl-6-(3-methyl-6-trifluoromethyl-3H-imidazo[4,5-b]pyridin-2-yl)nicotinamide], the mortality at 3.5 ppm (Culex pipiens pallens; [7]) is reported as no less than 95%, the mortality at 500 ppm (Plutella xylostella; [8]) is reported as no less than 80% and the mortality at 500 ppm (Nilaparvata lugens [1]) is reported as no less than 90%.
With `CCS(=O)(=O)c1cc(C(=O)N(C)OC)cnc1-c1nc2cc(C(F)(F)F)cnc2n1C` [Compound of Present Invention 1-18, 5-ethylsulfonyl-N-methoxy-N-methyl-6-(3-methyl-6-trifluoromethyl-3H-imidazo[4,5-b]pyridin-2-yl)nicotinamide] the mortality at 500 ppm (Aphis gossypii [5]) was no less than 90%, the mortality at 500 ppm (Aphis gossypii [2]) was no less than 90% and the mortality at 500 ppm (Nilaparvata lugens [6]) was no less than 90%.
For `CCCOC(=O)c1cnc(-c2nc3cc(C(F)(F)F)cnc3n2C)c(S(=O)(=O)CC)c1` [Compound of Present Invention 1-4, propyl 5-ethylsulfonyl-6-(3-methyl-6-trifluoromethyl-3H-imidazo[4,5-b]pyridin-2-yl)nicotinate], the mortality at 500 ppm (Plutella xylostella; [8]) was no less than 80%.
